Laboratory results from US20260166045A1, “COMBINATION THERAPY COMPRISING GSPT1-DIRECTED MOLECULAR GLUE DEGRADERS AND PI3K/AKT/mTOR PATHWAY INHIBITORS” (Monte Rosa Therapeutics, Inc., priority 2022, published 2026).

Key:
SU-DHL-6 cell line = experiment: CTG viability, 11x11 concentration matrix, Loewe synergy (lymphoma); conditions: inhibitor combined with compound 1-1, 11x11 matrix, 72 hours
Protocol: (§7) Cells were cultured in the media recommended by the supplier.
(§8) On the day before compound addition, cells were seeded in 384-well-plates (white with clear flat bottom) at the densities indicated in Table 6 in 40 μL of growth medium. The next day, compounds were dispensed from 10 mM stocks using a HP D300 dispenser according to the concentration matrices described above. For each cell line, the compound concentration matrices were dispensed twice as side-by-side duplicates on one 384-well-plate. In addition, each plate contained 14 wells with only growth medium and 44 wells with cells treated with DMSO alone to calculate the average background and maximal signals, respectively. The final DMSO concentration was normalized to 0.2% across the plates. Plates were then incubated for 72 hours. CellTiter-Glo® Luminescent Cell Viability Assay (CTG, Promega G7570) reagent was prepared according to the manufacturer's instructions. Plates were equilibrated to room temperature for approximately 30 minutes, 25 μL CTG reagent was added to each well and plates were mixed on an orbital shaker for 10 minutes to allow for cell lysis. After further incubation for 20 minutes at room temperature, the clear bottoms of the plates were pasted with white back seal and luminescence was read on an EnVision plate reader (measurement time 0.1 seconds).

DOHH-2 cell line = experiment: as above; conditions: inhibitor combined with compound 1-1, 11x11 matrix, 72 hours
Protocol: as §7, §8

DB cell line = experiment: as above; conditions: inhibitor combined with compound 1-1, 11x11 matrix, 72 hours
Protocol: as §7, §8

RAJI cell line = experiment: as above; conditions: inhibitor combined with compound 1-1, 11x11 matrix, 72 hours
Protocol: as §7, §8

WSU-DLCL2 cell line = experiment: as above; conditions: inhibitor combined with compound 1-1, 11x11 matrix, 72 hours
Protocol: as §7, §8

OPM-2 cell line = experiment: CTG viability, 11x11 concentration matrix, Loewe synergy (multiple myeloma); conditions: inhibitor combined with compound 1-1, 11x11 matrix, 72 hours
Protocol: as §7, §8

NCI-H209 cell line = experiment: CTG viability, 11x11 concentration matrix, Loewe synergy (SCLC); conditions: inhibitor combined with compound 1-1, 11x11 matrix, 72 hours
Protocol: as §7, §8

NCI-H1876 cell line = experiment: as above; conditions: inhibitor combined with compound 1-1, 11x11 matrix, 72 hours
Protocol: as §7, §8

KMS-34 cell line = experiment: CTG viability, 11x11 concentration matrix, Loewe synergy (multiple myeloma); conditions: inhibitor combined with compound 1-1, 11x11 matrix, 72 hours
Protocol: as §7, §8

NCI-H1836 cell line = experiment: CTG viability, 11x11 concentration matrix, Loewe synergy (SCLC); conditions: inhibitor combined with compound 1-1, 11x11 matrix, 72 hours
Protocol: as §7, §8

NCI-H69 cell line = experiment: as above; conditions: inhibitor combined with compound 1-1, 11x11 matrix, 72 hours
Protocol: as §7, §8

NCI-H526 cell line = experiment: as above; conditions: inhibitor combined with compound 1-1, 11x11 matrix, 72 hours
Protocol: as §7, §8

MM.1S cell line = experiment: CTG viability, 11x11 concentration matrix, Loewe synergy (multiple myeloma); conditions: inhibitor combined with compound 1-1, 11x11 matrix, 72 hours
Protocol: as §7, §8

U266B1 cell line = experiment: as above; conditions: inhibitor combined with compound 1-1, 11x11 matrix, 72 hours
Protocol: as §7, §8

RPMI 8226 cell line = experiment: as above; conditions: inhibitor combined with compound 1-1, 11x11 matrix, 72 hours
Protocol: as §7, §8

CAL51 cell line = experiment: CellTiter-Glo 2.0 cell viability, 7x7 combination dose response matrix, synergy scoring; format: cell-based
Source text: (§1) A study was undertaken to determine whether the combination of a GSPT1-directed MGD and an inhibitor of the PI3K/AKT/mTOR pathway could be effective in killing cancer cells and whether certain combination could elicit a greater than additive effect on cell killing.
(§2) FIG. 1 is a flow diagram of the method used to assess cancer cell killing by a combination of a GSPT1-directed MGD and an inhibitor of the PI3K/AKT/mTOR pathway. Certain of the materials and equipment used in the studies are presented in Table 3 and the cell lines used are presented in Table 4.
(§3) All assays were run in triplicate. Each 384-well plate accommodated six 7×7 dose response matrices (FIG. 2). All compound handling was performed using an Echo 650 Series Acoustic Liquid Handler, which enables fully automated, precise, contact-free acoustic transfer in volumes as low as 2.5 nL.
(§4) The following protocol was used for cell plating: • 1. Warm media to room temperature or 37° C. • 2. Prepare complete phenol-free media by adding 10% FBS+1% Pen-Strep to RPMI 1640 Medium or DMEM. • 3. Aspirate media from T175 tissue culture flask and rinse with 10 ml PBS. • 4. Aspirate PBS and add 2 mL 0.25% trypsin. Incubate the flask at 37° C. for 5 min or until cells are detached. • 5. Add 10 mL complete media to the flask to neutralize the trypsin, then collect cells in a 50 mL conical tube. • 6. Centrifuge cells at 300 g for 5 min. Aspirate media and suspend cell pellet in fresh media. Use cell strainer to strain cells into a new 50 mL conical tube. • 7. […] Mix 100 uL cell suspension with 100 uL trypan blue (1:1) and pipette 20 μL of the mixture into each of 2 counting chambers on a slide. Insert slide. • b. Adjust focus and record the live cell count. At least 2 independent measurements should be taken. […] Cell viability should be greater than 90%. […] Dilute cell suspension to the desired concentration (20000 cells/mL) using complete phenol-free media. Prepare 10 mL cell suspension per plate+an extra 10 mL for priming the liquid handler. • 9. Dispense cells into 384-well plates using the liquid handler at 25 uL/well (500 cells/well). 3 plates should be prepared per compound plate to be treated. • 10. Cells should be dispensed into columns 1-23 only. Media only (no cells) should be dispensed into column 24. • 11. Allow plates to rest at RT for 30 minutes before transferring to the incubator. Incubate cells overnight at 37° C., 95% humidity, and 5% CO2.
(§5) Compound plates were prepared as follows using an Echo 650 Series Acoustic Liquid Handler. • 1. A compound plate containing 7-point dose responses of each compound to be treated is first prepared from stock compounds. • 2. The cell plates are treated with compounds according to the following maps, where the first compound is added across all six 7 by 7 dose response matrices, and its concentration varies by row (FIG. 2; top matrix), whereas the second compound varies for each dose response matrix, and its concentration varies by column (FIG. 2; bottom matrix). Each cell plate receives one Compound A and six different Compound Bs. • 3. To prepare a compound plate, 384-well PP plate with stock compounds (highest concentration) is prepared. Compounds are diluted 1:1000 in the cell plates, e.g. 10 mM on compound plate will be 10 uM on cell plate. A 384-well LDV plate with pre-determined volumes of DMSO is prepared. Echo is used to dilute stock compounds from PP plate into LDV plate to prepare 7-point dose responses.
(§6) Compounds were added to the cells and cell viability was measured after 72 hour incubation using CellTiter-Glo 2.0 Cell Viability Assay (Promega): • 1. For a compound addition, Echo is used to transfer 25 nL from the compound plate wells to the cell plates according to the plate maps shown in FIG. 2. Cell plates are treated in triplicate. Each well of the cell plate has 25 uL media (1:1000 dilution). Incubate cells post-treatment at 37° C., 95% humidity, and 5% CO2 for 72 hrs (step 106). • 2. […]

MDA-MB-231 cell line = experiment: as above; format: cell-based; conditions: MDA-MB-231; combined with M2698 41-10000 nM; first compound 0.41-100 nM
Source text: as §1, §2, §3, §4, §5, §6

MCF7 cell line = experiment: as above; format: cell-based; conditions: MCF7
Source text: as §1, §2, §3, §4, §5, §6

MDA-MB-157 cell line = experiment: as above; format: cell-based; conditions: combined with M2698 41-10000 nM, first compound 0.41-100 nM
Source text: as §1, §2, §3, §4, §5, §6

[1] = CAL51, combined with Alpelisib 41-10000 nM, first compound 0.41-33.33 nM
[2] = CAL51, combined with Alpelisib 41-10000 nM, first compound 0.41-100 nM
[3] = CAL51, combined with Capivasertib 41-10000 nM, first compound 0.41-100 nM
[4] = CAL51, combined with GNE-477 41-10000 nM, first compound 0.41-100 nM
[5] = CAL51, combined with HS173 41-10000 nM, first compound 0.41-100 nM
[6] = CAL51, combined with M2698 41-10000 nM, first compound 0.41-100 nM
[7] = CAL51, combined with Serabelisib 41-10000 nM, first compound 0.41-100 nM
[8] = combined with Alpelisib 41-10000 nM, first compound 0.41-33.33 nM
[9] = combined with Alpelisib 41-10000 nM, first compound 0.41-100 nM
[10] = combined with Capivasertib 41-10000 nM, first compound 0.41-100 nM
[11] = combined with GNE-477 41-10000 nM, first compound 0.41-100 nM
[12] = combined with HS173 41-10000 nM, first compound 0.41-100 nM
[13] = combined with M2698 41-10000 nM, first compound 0.41-100 nM
[14] = combined with Serabelisib 41-10000 nM, first compound 0.41-100 nM

Compound: CC[C@H](Nc1ncnc2nc[nH]c12)c1nc2cccc(F)c2c(=O)n1-c1ccccc1 [idelalisib, 5-fluoro-3-phenyl-2-[(1S)-1-(7H-purin-6-ylamino)propyl]quinazolin-4-one]
- Mean Loewe synergy score, SUDHL6 (SU-DHL-6 cell line): 5.75
- Mean Loewe synergy score, DOHH2 (DOHH-2 cell line): 4.04
- Mean Loewe synergy score, DB (DB cell line): −3.25
- Mean Loewe synergy score, RAJI (RAJI cell line): 3.47
- Mean Loewe synergy score, WSU-DLCL2 (WSU-DLCL2 cell line): −2.08

Compound: Nc1cc(C(F)(F)F)c(-c2cc(N3CCOCC3)nc(N3CCOCC3)n2)cn1 [buparlisib, 5-(2,6-dimorpholin-4-ylpyrimidin-4-yl)-4-(trifluoromethyl)pyridin-2-amine]
- Mean Loewe synergy score, OPM-2 (OPM-2 cell line): −1.38
- Mean Loewe synergy score, NCI-H209 (NCI-H209 cell line): 0.78
- Mean Loewe synergy score, SUDHL6 (SU-DHL-6 cell line): −2.5
- Mean Loewe synergy score, DOHH2 (DOHH-2 cell line): 1.11
- Mean Loewe synergy score, NCI-H1876 (NCI-H1876 cell line): 0.017
- Mean Loewe synergy score, DB (DB cell line): 1.26
- Mean Loewe synergy score, KMS-34 (KMS-34 cell line): 5.94
- Mean Loewe synergy score, RAJI (RAJI cell line): 1.34
- Mean Loewe synergy score, NCI-H1836 (NCI-H1836 cell line): 1.64
- Mean Loewe synergy score, NCI-H69 (NCI-H69 cell line): 4.09
- Mean Loewe synergy score, NCI-H526 (NCI-H526 cell line): −0.21
- Mean Loewe synergy score, MM.1S (MM.1S cell line): 1.48
- Mean Loewe synergy score, WSU-DLCL2 (WSU-DLCL2 cell line): −3.1
- Mean Loewe synergy score, U266B1 (U266B1 cell line): −0.19
- Mean Loewe synergy score, RPMI 8226 (RPMI 8226 cell line): 3.57

Compound: Cc1cc(C)cc(NC(=O)OCc2ccc3c(c2)C(=O)N(C2CCC(=O)NC2=O)C3)c1 (centres unmarked) [Compound 1-4, [2-(2,6-dioxopiperidin-3-yl)-3-oxo-2,3-dihydro-1H-isoindol-5-yl]methyl N-(3,5-dimethylphenyl)carbamate]
- Mean Bliss synergy score (CAL51 cell line; [1]): 10.76
- Mean Loewe synergy score (CAL51 cell line; [1]): 7.63
- Mean Bliss synergy score (CAL51 cell line; [2]): 36.63
- Mean Loewe synergy score (CAL51 cell line; [2]): 11.29
- Mean Bliss synergy score (CAL51 cell line; [3]): 30.43
- Mean Loewe synergy score (CAL51 cell line; [3]): 14.67
- Mean Bliss synergy score (CAL51 cell line; [4]): 15.82
- Mean Loewe synergy score (CAL51 cell line; [4]): 6.64
- Mean Bliss synergy score (CAL51 cell line; [5]): 8.74
- Mean Loewe synergy score (CAL51 cell line; [5]): 1.29
- Mean Bliss synergy score (CAL51 cell line; [6]): 16.31
- Mean Loewe synergy score (CAL51 cell line; [6]): 8.47
- Mean Bliss synergy score (CAL51 cell line; [7]): 5.71
- Mean Loewe synergy score (CAL51 cell line; [7]): −1.80
- Mean Bliss synergy score (CAL51 cell line; combined with Alpelisib (41 nM to 10 uM), CAL51 cell line, mean across dose response matrix, 72 hrs): 36.63
- Mean Bliss synergy score (MDA-MB-231 cell line): 2.10
- Mean Loewe synergy score (MDA-MB-231 cell line): 2.36
- Mean Bliss synergy score (MCF7 cell line; [8]): 9.41
- Mean Loewe synergy score (MCF7 cell line; [8]): 7.90
- Mean Bliss synergy score (MCF7 cell line; [9]): 17.96
- Mean Loewe synergy score (MCF7 cell line; [9]): 9.59
- Mean Bliss synergy score (MCF7 cell line; [10]): 17.17
- Mean Loewe synergy score (MCF7 cell line; [10]): 9.85
- Mean Bliss synergy score (MCF7 cell line; [11]): 9.39
- Mean Loewe synergy score (MCF7 cell line; [11]): 7.58
- Mean Bliss synergy score (MCF7 cell line; [12]): 3.51
- Mean Loewe synergy score (MCF7 cell line; [12]): 1.27
- Mean Bliss synergy score (MCF7 cell line; [13]): 14.55
- Mean Loewe synergy score (MCF7 cell line; [13]): 7.79
- Mean Bliss synergy score (MCF7 cell line; [14]): 4.26
- Mean Loewe synergy score (MCF7 cell line; [14]): 1.36
- Mean Bliss synergy score (MDA-MB-157 cell line): 4.94
- Mean Loewe synergy score (MDA-MB-157 cell line): 5.54

Compound: NC1(C(=O)N[C@@H](CCO)c2ccc(Cl)cc2)CCN(c2ncnc3[nH]ccc23)CC1 [Capivasertib, 4-amino-N-[(1S)-1-(4-chlorophenyl)-3-hydroxypropyl]-1-(7H-pyrrolo[2,3-d]pyrimidin-4-yl)piperidine-4-carboxamide]
- Mean Loewe synergy score, OPM-2 (OPM-2 cell line): −1
- Mean Loewe synergy score, NCI-H209 (NCI-H209 cell line): 0.85
- Mean Loewe synergy score, SUDHL6 (SU-DHL-6 cell line): −1.92
- Mean Loewe synergy score, DOHH2 (DOHH-2 cell line): 2.89
- Mean Loewe synergy score, NCI-H1876 (NCI-H1876 cell line): 0.7
- Mean Loewe synergy score, DB (DB cell line): 0.29
- Mean Loewe synergy score, KMS-34 (KMS-34 cell line): 7.48
- Mean Loewe synergy score, RAJI (RAJI cell line): 2.97
- Mean Loewe synergy score, NCI-H1836 (NCI-H1836 cell line): 1.9
- Mean Loewe synergy score, NCI-H69 (NCI-H69 cell line): 7.38
- Mean Loewe synergy score, NCI-H526 (NCI-H526 cell line): 4.3
- Mean Loewe synergy score, MM.1S (MM.1S cell line): 2.63
- Mean Loewe synergy score, WSU-DLCL2 (WSU-DLCL2 cell line): 0.95
- Mean Loewe synergy score, U266B1 (U266B1 cell line): 1.76
- Mean Loewe synergy score, RPMI 8226 (RPMI 8226 cell line): 4.81
